Laboratory results as given in the NIST ThermoML archive (doi:10.1021/je2002495).
± gives the expanded uncertainty stated by the source.

Columns and labels:
[1] = Liquid; for mass density: 298.15 K, 101.33 kPa, Pycnometric method
[2] = excess molar enthalpy (molar enthalpy of mixing); xn = mol fraction of the nth substance listed; details: 298.15 K, 101 kPa, Liquid, Calvet calorimetry

| SMILES | mass density [1] [kg/m3] | Normal boiling temperature ([1]; Distillation) [°C] | excess molar enthalpy ([2]; x1 = 0.095) [kJ/mol] | excess molar enthalpy ([2]; x1 = 0.199) [kJ/mol] | excess molar enthalpy ([2]; x1 = 0.298) [kJ/mol] | excess molar enthalpy ([2]; x1 = 0.403) [kJ/mol] | excess molar enthalpy ([2]; x1 = 0.505) [kJ/mol] | excess molar enthalpy ([2]; x1 = 0.601) [kJ/mol] | excess molar enthalpy ([2]; x1 = 0.703) [kJ/mol] | excess molar enthalpy ([2]; x1 = 0.807) [kJ/mol] | excess molar enthalpy ([2]; x1 = 0.904) [kJ/mol] |
| --- | --- | --- | --- | --- | --- | --- | --- | --- | --- | --- | --- |
| c1ccncc1 [pyridine] | 981.3 ± 0.9 | 114.8 ± 1.1 | – | – | – | – | – | – | – | – | – |
| c1ccncc1 [pyridine] + O | – | – | -0.396 ± 0.024 | -0.867 ± 0.052 | -1.09 ± 0.066 | -1.23 ± 0.074 | -1.28 ± 0.077 | -1.24 ± 0.075 | -1.13 ± 0.068 | -0.87 ± 0.053 | -0.34 ± 0.021 |
| O [water] | 996.5 ± 0.9 | – | – | – | – | – | – | – | – | – | – |
